The source of these data is patent US20010029264A1, “Novel methods and compositions for delivery of taxanes” (priority 1998, published 2001).

A short description of series [1]: Oral feasibility PK in dogs (paclitaxel capsules, plasma HPLC). It is filed as in vivo. Particulars: for Cmax / Tmax: dog, plasma; for Tmax: read-out: tmax (time of maximum concentration observed). The procedure: The formulation was as follows: […]
and was hand filled into single 0 hard gelatin capsules to a dose of approximately 34 mg/capsule.
Capsules were inserted into the esophagus and followed with a brief squirt of water and the animals held until swallowing was observed.

Series [2] can be described thus: Solubilization of paclitaxel in the carrier and appearance of the undiluted formulation. Format: physicochemical.
Experimental: 4.040 g of Vitamin E-TPGS (Eastman Chemical Co., Kingsport, Tenn.) was chipped in and weighed into a 20 ml scintillation vial. 0.514 g of dimethylisosorbide (“DMI”; ARLASOLVE® DMI, ICI Surfactants; Wilmington, Del.) was added to the vial followed by heating to melt the Vitamin E-TPGS/DMI mixture. […] The solution began to clarify and dissolution progressed.
Each formulation was prepared in a 20 ml scintillation vial. The vial was initially tared. CREMOPHOR® EL/citric acid blend (10 g CREMOPHOR® EL, 0.020 g citric acid) was weighed into each of eight (8) tared vials. The weight was recorded. Each vial was subsequently tared and the appropriate weight of dimethylisosorbide (DMI) was added. An additional five (5) vials were also prepared without containing the CREMOPHOR® EL/citric acid blend. […] All vials were individually tared and the appropriate weight of Vitamin E-TPGS was added. At this point, all vials were placed in a 40° C. incubator to liquefy the Vitamin E-TPGS within each sample. After the solutions had liquefied, two samples were removed at a time and placed on a stir/hotplate. One-half inch egg shaped stir bars were added to each scintillation vial.
Large clumps were broken apart easily with a stainless steel spatula. […] This same procedure was repeated for each of the samples.
1.016 g of ethyl alcohol was transferred to a 20 ml scintillation vial containing a stir bar. […]
Series [3] concerns IP implanted D16 melanoma. Particulars: cited from earlier work.
Series [4] concerns human X-1 mammary tumor xenograft. The following applies: cited from earlier work.
[5] abbreviates: male beagle FJF-8, oral, 3 capsules Vitamin E TPGS/DMI formulation, 7.66 mg/kg.
Setting [6] is: male beagle IOF-8, oral, 3 capsules Vitamin E TPGS/DMI formulation, 6.88 mg/kg.

Read-outs that look alike come from different tables or passages of the source.

By Cmax is commonly meant the highest concentration seen after dosing. Consider `CC(=O)O[C@H]1C(=O)[C@@]2(C)[C@H]([C@H](OC(=O)c3ccccc3)[C@]3(O)C[C@H](OC(=O)[C@H](O)[C@@H](NC(=O)c4ccccc4)c4ccccc4)C(C)=C1C3(C)C)[C@]1(OC(C)=O)CO[C@@H]1C[C@@H]2O` [paclitaxel], for which the Cmax in series [1] (setting [5]) was 0.108 µg/mL; in series [1] (setting [6]), 0.092 µg/mL; in series [1] (male, beagle, po, 3.23 mg/kg), 0.017 µg/mL; in series [1] (male, beagle, po, 3.27 mg/kg), 0.097 µg/mL; in series [1] (male, beagle, po, 11.14 mg/kg), 0.063 µg/mL. For the same compound, the Tmax was found to be 1 h in series [1] (setting [5]); 0.5 h in series [1] (setting [6]); 1 h in series [1] (male, beagle, po, 3.23 mg/kg); 1 h in series [1] (male, beagle, po, 3.27 mg/kg); 1 h in series [1] (male, beagle, po, 11.14 mg/kg). For the same compound, the “tlast (time of last nonzero concentration observed)” value was 8 h in series [1] (setting [5]); 6 h in series [1] (setting [6]); 8 h in series [1] (male beagle OEF-8, oral, 1 capsule Vitamin E TPGS/DMI formulation, 3.27 mg/kg); 8 h in series [1] (male beagle OLF-8, oral, 3 capsules Vitamin E TPGS/DMI formulation, 11.14 mg/kg); 12 h in series [1] (male beagle PXF-8, oral, 1 capsule Vitamin E TPGS/DMI formulation, 3.23 mg/kg). Also, in series [1] (six male beagles, oral capsules, 3 to 11 mg/kg, plasma to 48 hours postdose), the “detectable plasma levels of intact drug following dosing” value is given as “Five of the six animals had detectable levels of intact drug”. The “dissolution of paclitaxel in Methoxy PEG 550 alone” value in series [2] (0.050 g in 0.450 g (Table 3)) is given as “eventually dissolved”. Besides, in series [2] (0.050 g in 0.450 g and 0.100 g in 0.900 g (Table 3)), the “dissolution of paclitaxel in Methoxy PEG 350 alone” value is “quickly dissolved”. Besides, the cytotoxic activity entry in series [3] and in series [4] was “good cytotoxic activity” throughout.
